In patent US4252808A, “β-Lactam antibacterial agents, their use in pharmaceutical compositions, the process for their preparation and intermediates for use in that process” (Beecham Group Limited, priority 1978, dated 1981):
Converted amounts (≈) assume the structure as drawn.

What was measured:
Format in all cases: cell-based
P. mirabilis C 977 [1] = experiment: MIC, serial dilution in DST agar with 10% horse blood (Table 2); details: Proteus mirabilis, C977, inoculum diluted 10^-4
Source text: (§1) *Serial dilution in DST agar containing 10% horse blood, inoculum 0.001 m
(§2) broth culture diluted 10^-2 for Grampositive and 10^-4 for
(§3) Gramnegative organisms.

S. pyogenes CN 10 [2] = experiment: as above; details: Streptococcus pyogenes, CN10, inoculum diluted 10^-2
Source text: as §1, §2, §3

P. morganii 1580 = experiment: as above; details: Morganella morganii, inoculum diluted 10^-4
Source text: as §1, §2, §3

S. aureus 1517 [3] = experiment: as above; details: Staphylococcus aureus, inoculum diluted 10^-2
Source text: as §1, §2, §3

E. cloacae Nl [4] = experiment: as above; details: Enterobacter cloacae, inoculum diluted 10^-4
Source text: as §1, §2, §3

P. rettgeri WM 16 = experiment: as above; details: Providencia rettgeri, WM16, inoculum diluted 10^-4
Source text: as §1, §2, §3

S. faecalis 1 [5] = experiment: as above; details: Enterococcus faecalis, inoculum diluted 10^-2
Source text: as §1, §2, §3

E. coli 0111 = experiment: as above; details: Escherichia coli, inoculum diluted 10^-4
Source text: as §1, §2, §3

S. pneumoniae CN 33 = experiment: as above; details: Streptococcus pneumoniae, CN33, inoculum diluted 10^-2
Source text: as §1, §2, §3

S. aureues Russell = experiment: as above; details: Staphylococcus aureus, inoculum diluted 10^-2
Source text: as §1, §2, §3

K. aerogenes A [6] = experiment: as above; details: Klebsiella aerogenes, inoculum diluted 10^-4
Source text: as §1, §2, §3

B. subtilis [7] = experiment: as above; details: Bacillus subtilis, inoculum diluted 10^-2
Source text: as §1, §2, §3

S. aureus Oxford [8] = experiment: as above; details: Staphylococcus aureus, inoculum diluted 10^-2
Source text: as §1, §2, §3

P. mirabilis C 977 [9] = experiment: MIC, serial dilution in nutrient agar with 5% horse blood (Table 1); details: Proteus mirabilis, C977, inoculum 0.001 ml undiluted broth culture
Experimental: (§4) | *Serial dilution in nutrient agar containing 5% horse blood, inoculum | 0.001 ml undiluted broth culture.

S. pyogenes CN 10 [10] = experiment: as above; details: Streptococcus pyogenes, CN10, inoculum 0.001 ml undiluted broth culture
Experimental: as §4

S. aureus Russell = experiment: as above; details: Staphylococcus aureus, inoculum 0.001 ml undiluted broth culture
Experimental: as §4

S. aureus 1517 [11] = experiment: as above; details: Staphylococcus aureus, inoculum 0.001 ml undiluted broth culture
Experimental: as §4

P. rettgeri = experiment: as above; details: Providencia rettgeri, inoculum 0.001 ml undiluted broth culture
Experimental: as §4

E. cloacae Nl [12] = experiment: as above; details: Enterobacter cloacae, inoculum 0.001 ml undiluted broth culture
Experimental: as §4

S. faecalis 1 [13] = experiment: as above; details: Enterococcus faecalis, inoculum 0.001 ml undiluted broth culture
Experimental: as §4

P. morganii = experiment: as above; details: Morganella morganii, inoculum 0.001 ml undiluted broth culture
Experimental: as §4

E. coli JT 4 = experiment: as above; details: Escherichia coli, JT4, inoculum 0.001 ml undiluted broth culture
Experimental: as §4

S. aureus Oxford [14] = experiment: as above; details: Staphylococcus aureus, inoculum 0.001 ml undiluted broth culture
Experimental: as §4

K. aerogenes A [15] = experiment: as above; details: Klebsiella aerogenes, inoculum 0.001 ml undiluted broth culture
Experimental: as §4

B. subtilis [16] = experiment: as above; details: Bacillus subtilis, inoculum 0.001 ml undiluted broth culture
Experimental: as §4

| SMILES | MIC (P. mirabilis C 977 [1]) [µg/mL] | MIC (S. pyogenes CN 10 [2]) [µg/mL] | MIC (P. morganii 1580) [µg/mL] | MIC (S. aureus 1517 [3]) [µg/mL] | MIC (E. cloacae Nl [4]) [µg/mL] | MIC (P. rettgeri WM 16) [µg/mL] | MIC (S. faecalis 1 [5]) [µg/mL] | MIC (E. coli 0111) [µg/mL] | MIC (S. pneumoniae CN 33) [µg/mL] | MIC (S. aureues Russell) [µg/mL] | MIC (K. aerogenes A [6]) [µg/mL] | MIC (B. subtilis [7]) [µg/mL] | MIC (S. aureus Oxford [8]) [µg/mL] | MIC (P. mirabilis C 977 [9]) [µg/mL] | MIC (S. pyogenes CN 10 [10]) [µg/mL] | MIC (S. aureus Russell) [µg/mL] | MIC (S. aureus 1517 [11]) [µg/mL] | MIC (P. rettgeri) [µg/mL] | MIC (E. cloacae Nl [12]) [µg/mL] | MIC (S. faecalis 1 [13]) [µg/mL] | other results |
| --- | --- | --- | --- | --- | --- | --- | --- | --- | --- | --- | --- | --- | --- | --- | --- | --- | --- | --- | --- | --- | --- |
| CCSCC(=O)NC1C(=O)N2C(C(=O)O)=C(C)c3cnnn3C12 [Compound 48, (3aR,4S)-4,5-Dihydro-5-oxo-8-methyl-4-ethylthioacetamido 3aH-azeto[1,2a]v-triazolo[3,4c]pyrimidine-7-carboxylic acid] | 10 (≈ 29.6 µM) | 0.5 (≈ 1.48 µM) | 25 (≈ 74.1 µM) | 25 (≈ 74.1 µM) | > 100 | > 100 | 25 (≈ 74.1 µM) | 50 (≈ 148 µM) | 1 (≈ 2.96 µM) | 5 (≈ 14.8 µM) | 50 (≈ 148 µM) | 0.2 (≈ 0.593 µM) |  |  |  |  |  |  |  |  |  |
| CC1=C(C(=O)O)N2C(=O)[C@@H](NC(=O)CC#N)[C@H]2n2nncc21 [Compound 49, (3aR,4S)-4,5-Dihydro-5-oxo-8-methyl-4-cyanoacetamido 3aH-azeto[1,2a]v-triazolo[3,4-c]pyrimidine-7-carboxylic acid] | 50 (≈ 165 µM) | 2.5 (≈ 8.27 µM) | 100 (≈ 331 µM) | 100 (≈ 331 µM) | > 100 | > 100 | 25 (≈ 82.7 µM) | 100 (≈ 331 µM) | 5 (≈ 16.5 µM) | 25 (≈ 82.7 µM) | 100 (≈ 331 µM) | 2.5 (≈ 8.27 µM) | 5 (≈ 16.5 µM) |  |  |  |  |  |  |  |  |
| CO/N=C(\C(=O)N[C@@H]1C(=O)N2C(C(=O)O)=C(C)c3cnnn3[C@H]12)c1ccco1 [Compound 50, (3aR,4R)-4,5-Dihydro-5-oxo-8-methyl-4-[(2-methoxyimino-2-fur-2'-yl)acetamido]-3aH-azeto[1,2-a]v-triazolo[3,4-c]pyrimidine-7-carboxylic acid] | 50 (≈ 129 µM) | 1 (≈ 2.59 µM) | 100 (≈ 259 µM) | 100 (≈ 259 µM) | > 100 | > 100 | > 100 | 100 (≈ 259 µM) | 10 (≈ 25.9 µM) | 25 (≈ 64.7 µM) | 100 (≈ 259 µM) | 5 (≈ 12.9 µM) |  |  |  |  |  |  |  |  |  |
| CC1=C(C(=O)O)N2C(=O)[C@@H](NC(=O)C(F)(F)F)[C@H]2n2nncc21 [Compound 51, (3aR,4S)-4,5-Dihydro-5-oxo-8-methyl-4-trifluoroacetamido 3aH-azeto[1,2-a]v-triazolo[3,4-c]pyrimidine-7-carboxylic acid] | > 100 | 25 (≈ 75.5 µM) | > 100 | > 100 | > 100 | > 100 | 100 (≈ 302 µM) | 100 (≈ 302 µM) | 50 (≈ 151 µM) | > 100 | > 100 | 5 (≈ 15.1 µM) | > 100 |  |  |  |  |  |  |  |  |
| CC(=O)OCC1=C(C(=O)O)N2C(=O)[C@@H](NC(=O)Cc3cccs3)[C@H]2n2nncc21 [Compound 57, (3aR,4S) 4,5-Dihydro-5-oxo-8-acetoxymethyl-4-(2-thienylacetamido)-3aH-azeto[1,2-a]v-triazolo[3,4-c]pyrimidine-7-carboxylic acid] |  |  |  |  |  |  |  |  |  |  |  |  |  | > 100 | > 100 | > 100 | > 100 | > 100 | > 100 | > 100 | MIC (P. morganii): > 100 µg/mL; MIC (E. coli JT 4): > 100 µg/mL; MIC (S. aureus Oxford [14]): > 100 µg/mL; MIC (K. aerogenes A [15]): > 100 µg/mL; MIC (B. subtilis [16]): 100 µg/mL (≈ 240 µM) |
| Cc1nnc(SCC2=C(C(=O)O)N3C(=O)[C@@H](NC(=O)Cc4cccs4)[C@H]3n3nncc32)s1 [Compound 60, (3aR,4S) 4,5-Dihydro-5-oxo-8-[5-methyl(1,3,4-thiadiazol-2-yl)thiomethyl]-4-(2-thienylacetamido)-3aH-azeto[1,2-a]-v-triazolo[3,4-c]pyrimidine-7-carboxylic acid] | > 100 | 2.5 (≈ 5.11 µM) | > 100 | 100 (≈ 204 µM) | > 100 | > 100 | 25 (≈ 51.1 µM) | > 100 | 0.5 (≈ 1.02 µM) | 25 (≈ 51.1 µM) | > 100 | 5 (≈ 10.2 µM) |  | > 100 | > 100 | > 100 | > 100 | > 100 | > 100 | > 100 | MIC (P. morganii): > 100 µg/mL; MIC (E. coli JT 4): > 100 µg/mL; MIC (S. aureus Oxford [14]): > 100 µg/mL; MIC (K. aerogenes A [15]): > 100 µg/mL; MIC (B. subtilis [16]): 50 µg/mL (≈ 102 µM) |
